{"source": "patent US20160244718A1", "about": "“REPROGRAMMING OF PLURIPOTENT STEM CELLS FOR IMPROVED CONTROL OF THEIR DIFFERENTIATION PATHWAYS” (ETH ZURICH, priority 2013, published 2016)", "tested_on": "pPSCs (cESCs d7) and PSCs (WT ESCs)", "test": "Cardiogenic differentiation induced by icariin, Real-Time PCR of cardiogenic markers", "type": "cell-based, mouse", "settings": "12 days stimulation with icariin (d7 to d7+12), RNA isolated every 4 days, normalized to Gapdh; pPSCs compared with PSCs", "experimental": "Total RNA was isolated from ˜1×10^6 cells per sample using the RNeasy Plus Mini Kit (Qiagen, Hombrechtikon, Switzerland) with RNase-free DNase treatment (Qiagen) following the manufacturer's protocol. For reverse transcription (RT) 2 μg total RNA was reverse transcribed into cDNA in a reaction volume of 20 μl using the iScript™ Advanced cDNA Synthesis Kit (Bio-Rad). Each RT reaction mix contained 4 μl 5× iScript advanced reaction mix and 1 μl iScript advanced reverse transcriptase. The 20 μl reactions were incubated at 42° C. for 30 min, at 85° C. for 5 min, and then held at 4° C. Real-Time PCR reactions were performed on the resulting cDNA using the CFX Connect™ Real-Time PCR Detection System (Bio-Rad), SsoAdvanced™ SYBR® Green Supermix (Bio-Rad) and Hard-Shell® Low-Profile Thin-Wall 96-Well Skirted PCR Plates (Bio-Rad). Briefly, following the RT step, 5 μl of the 100fold-diluted RT reaction was combined with 15 μl mastermix (2× SsoAdvanced™ SYBR® Green Supermix, forward primer, reverse primer and nuclease-free water) in a 20 μl final volume. PCR reactions were incubated at 95° C. for 3 min, followed by 39 cycles of 95° C. for 10 s and 62° C. for 30 s; and were run as duplicates of two independent experiments. […] Results were analyzed using CFX Manager™ software (Bio-Rad) and mRNA expression levels relative to Gapdh were calculated based on the AACt method. […]", "data": [{"smiles": "COc1ccc(-c2oc3c(CC=C(C)C)c(O[C@@H]4O[C@H](CO)[C@@H](O)[C@H](O)[C@H]4O)cc(O)c3c(=O)c2O[C@@H]2O[C@@H](C)[C@H](O)[C@@H](O)[C@H]2O)cc1", "note": "[icariin]", "values": [{"measurement": "mRNA expression of all tested cardiogenic markers", "value": "induced higher in pPSCs than in PSCs"}]}]}
